In the supplement of paper PMC10307832:

Assays:
Test in all cases: relative viability (nuclei count vs DMSO), 5 days (fraction); higher = more cells survive
A549 = test system: A549
Method in brief: (§1)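 Lung cancer cell lines were seeded in 1536-well plates and dosed by pin tool the next day, with either a single drug or a fixed anchor-drug dose combined with five library-drug doses (not always all listed) spaced in √10 steps. Five days later, one step fixed the cells and stained their nuclei (final 0.05% Triton X-100, 1% formaldehyde, 1 ug/ml Hoechst), and nuclei were counted on 4× images. Relative viability is the nuclei count in treated wells divided by the count in vehicle wells, and each value is the median of duplicate plates.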

Calu-6 = test system: Calu-6
Method in brief: as §1

EBC-1 = test system: EBC-1
Method in brief: as §1

IA-LM = test system: IA-LM
Method in brief: as §1

LOU-NH91 = test system: LOU-NH91
Method in brief: as §1

NCI-H1299 = test system: NCI-H1299
Method in brief: as §1

NCI-H1703 = test system: NCI-H1703
Method in brief: as §1

NCI-H2009 = test system: NCI-H2009
Method in brief: as §1

NCI-H2405 = test system: NCI-H2405
Method in brief: as §1

NCI-H647 = test system: NCI-H647
Method in brief: as §1

Question: `Cc1cn(-c2cc(NC(=O)c3ccc(C)c(Nc4nccc(-c5cccnc5)n4)c3)cc(C(F)(F)F)c2)cn1` [Nilotinib] + CS(=O)(=O)N1CCN(Cc2cc3nc(-c4cccc5[nH]ncc45)nc(N4CCOCC4)c3s2)CC1 [Pictilisib] (partner 1 µM) was tested. Which relative viability (A549; first compound 0.003162 µM) did it give?
Answer: The relative viability was 0.743.

Question: What about the relative viability (A549; first compound 0.01 µM) of the same molecule?
Answer: The relative viability was 0.6.

Question: What about the relative viability (A549; first compound 0.03162 µM) of the same molecule?
Answer: The relative viability was 0.368.

Question: What about the relative viability (A549; first compound 0.1 µM) of the same molecule?
Answer: Its relative viability is 0.374.

Question: And the relative viability (Calu-6; first compound 0.001 µM)?
Answer: Its relative viability is 0.893.

Question: And the relative viability (Calu-6; first compound 0.003162 µM)?
Answer: The relative viability was 0.919.

Question: What about the relative viability (Calu-6; first compound 0.01 µM) of the same molecule?
Answer: Its relative viability is 1.06.

Question: And the relative viability (Calu-6; first compound 0.03162 µM)?
Answer: The relative viability was 0.864.

Question: And the relative viability (Calu-6; first compound 0.1 µM)?
Answer: The relative viability was 0.827.

Question: And the relative viability (EBC-1; first compound 0.003162 µM)?
Answer: The relative viability was 0.287.

Question: What about the relative viability (EBC-1; first compound 0.01 µM) of the same molecule?
Answer: The relative viability was 0.313.

Question: What about the relative viability (EBC-1; first compound 0.03162 µM) of the same molecule?
Answer: The relative viability was 0.289.

Question: And the relative viability (EBC-1; first compound 0.1 µM)?
Answer: The relative viability was 0.253.

Question: What about the relative viability (IA-LM; first compound 0.001 µM) of the same molecule?
Answer: Its relative viability is 0.36.

Question: What about the relative viability (IA-LM; first compound 0.003162 µM) of the same molecule?
Answer: The relative viability was 0.431.

Question: And the relative viability (IA-LM; first compound 0.01 µM)?
Answer: The relative viability was 0.426.

Question: And the relative viability (IA-LM; first compound 0.03162 µM)?
Answer: Its relative viability is 0.209.

Question: What about the relative viability (IA-LM; first compound 0.1 µM) of the same molecule?
Answer: The relative viability was 0.41.

Question: And the relative viability (LOU-NH91; first compound 0.001 µM)?
Answer: Its relative viability is 0.548.

Question: And the relative viability (LOU-NH91; first compound 0.003162 µM)?
Answer: The relative viability was 0.537.

Question: What about the relative viability (LOU-NH91; first compound 0.01 µM) of the same molecule?
Answer: The relative viability was 0.543.

Question: And the relative viability (LOU-NH91; first compound 0.03162 µM)?
Answer: The relative viability was 0.483.

Question: And the relative viability (LOU-NH91; first compound 0.1 µM)?
Answer: Its relative viability is 0.54.

Question: And the relative viability (NCI-H1299; first compound 0.001 µM)?
Answer: Its relative viability is 0.611.

Question: What about the relative viability (NCI-H1299; first compound 0.003162 µM) of the same molecule?
Answer: The relative viability was 1.12.

Question: And the relative viability (NCI-H1299; first compound 0.01 µM)?
Answer: The relative viability was 0.887.

Question: And the relative viability (NCI-H1299; first compound 0.03162 µM)?
Answer: Its relative viability is 0.495.

Question: And the relative viability (NCI-H1299; first compound 0.1 µM)?
Answer: The relative viability was 0.396.

Question: And the relative viability (NCI-H1703; first compound 0.001 µM)?
Answer: Its relative viability is 0.225.

Question: And the relative viability (NCI-H1703; first compound 0.003162 µM)?
Answer: The relative viability was 0.291.

Question: And the relative viability (NCI-H1703; first compound 0.01 µM)?
Answer: Its relative viability is 0.19.

Question: And the relative viability (NCI-H1703; first compound 0.03162 µM)?
Answer: The relative viability was 0.215.

Question: What about the relative viability (NCI-H1703; first compound 0.1 µM) of the same molecule?
Answer: Its relative viability is 0.196.

Question: What about the relative viability (NCI-H2009; first compound 0.001 µM) of the same molecule?
Answer: Its relative viability is 0.79.

Question: And the relative viability (NCI-H2009; first compound 0.003162 µM)?
Answer: The relative viability was 0.913.

Question: What about the relative viability (NCI-H2009; first compound 0.01 µM) of the same molecule?
Answer: The relative viability was 0.958.

Question: And the relative viability (NCI-H2009; first compound 0.03162 µM)?
Answer: The relative viability was 0.655.

Question: And the relative viability (NCI-H2009; first compound 0.1 µM)?
Answer: The relative viability was 0.187.

Question: What about the relative viability (NCI-H2405; first compound 0.001 µM) of the same molecule?
Answer: The relative viability was 0.426.

Question: And the relative viability (NCI-H2405; first compound 0.003162 µM)?
Answer: Its relative viability is 0.404.

Question: What about the relative viability (NCI-H2405; first compound 0.01 µM) of the same molecule?
Answer: The relative viability was 0.315.

Question: What about the relative viability (NCI-H2405; first compound 0.03162 µM) of the same molecule?
Answer: Its relative viability is 0.296.

Question: What about the relative viability (NCI-H2405; first compound 0.1 µM) of the same molecule?
Answer: The relative viability was 0.345.

Question: And the relative viability (NCI-H647; first compound 0.001 µM)?
Answer: Its relative viability is 0.528.

Question: What about the relative viability (NCI-H647; first compound 0.003162 µM) of the same molecule?
Answer: The relative viability was 0.452.

Question: What about the relative viability (NCI-H647; first compound 0.01 µM) of the same molecule?
Answer: Its relative viability is 0.38.

Question: What about the relative viability (NCI-H647; first compound 0.03162 µM) of the same molecule?
Answer: The relative viability was 0.43.

Question: What about the relative viability (NCI-H647; first compound 0.1 µM) of the same molecule?
Answer: The relative viability was 0.397.

Question: How did the relative viability (A549; first compound 0.02 µM) turn out when `CN1CCN(CCOc2cc(OC3CCOCC3)c3c(Nc4c(Cl)ccc5c4OCO5)ncnc3c2)CC1` [Saracatinib] + C[C@@H](Oc1cc(-c2cnn(C3CCNCC3)c2)cnc1N)c1c(Cl)ccc(F)c1Cl [Crizotinib] (partner 1 µM) was run?
Answer: Its relative viability is 0.74.

Question: What about the relative viability (A549; first compound 0.2 µM) of the same molecule?
Answer: Its relative viability is 0.738.

Question: What about the relative viability (A549; first compound 0.6325 µM) of the same molecule?
Answer: The relative viability was 0.649.

Question: What about the relative viability (A549; first compound 2 µM) of the same molecule?
Answer: Its relative viability is 0.549.

Question: What about the relative viability (Calu-6; first compound 0.02 µM) of the same molecule?
Answer: The relative viability was 0.769.

Question: And the relative viability (Calu-6; first compound 0.2 µM)?
Answer: The relative viability was 0.594.

Question: What about the relative viability (Calu-6; first compound 0.6325 µM) of the same molecule?
Answer: The relative viability was 0.662.

Question: And the relative viability (Calu-6; first compound 2 µM)?
Answer: Its relative viability is 0.526.

Question: And the relative viability (EBC-1; first compound 0.02 µM)?
Answer: The relative viability was 0.174.

Question: And the relative viability (EBC-1; first compound 0.2 µM)?
Answer: Its relative viability is 0.198.

Question: What about the relative viability (EBC-1; first compound 0.6325 µM) of the same molecule?
Answer: Its relative viability is 0.188.

Question: What about the relative viability (EBC-1; first compound 2 µM) of the same molecule?
Answer: Its relative viability is 0.181.

Question: What about the relative viability (IA-LM; first compound 0.02 µM) of the same molecule?
Answer: The relative viability was 1.07.

Question: And the relative viability (IA-LM; first compound 0.2 µM)?
Answer: The relative viability was 1.08.

Question: And the relative viability (IA-LM; first compound 0.6325 µM)?
Answer: The relative viability was 1.24.

Question: What about the relative viability (IA-LM; first compound 2 µM) of the same molecule?
Answer: Its relative viability is 0.738.

Question: What about the relative viability (LOU-NH91; first compound 0.02 µM) of the same molecule?
Answer: Its relative viability is 0.692.

Question: What about the relative viability (LOU-NH91; first compound 0.2 µM) of the same molecule?
Answer: Its relative viability is 0.57.

Question: What about the relative viability (LOU-NH91; first compound 0.6325 µM) of the same molecule?
Answer: Its relative viability is 0.542.

Question: And the relative viability (LOU-NH91; first compound 2 µM)?
Answer: The relative viability was 0.458.

Question: And the relative viability (NCI-H1299; first compound 0.02 µM)?
Answer: The relative viability was 0.942.

Question: What about the relative viability (NCI-H1299; first compound 0.2 µM) of the same molecule?
Answer: The relative viability was 0.948.

Question: What about the relative viability (NCI-H1299; first compound 0.6325 µM) of the same molecule?
Answer: Its relative viability is 0.985.

Question: And the relative viability (NCI-H1299; first compound 2 µM)?
Answer: Its relative viability is 0.781.

Question: And the relative viability (NCI-H1703; first compound 0.02 µM)?
Answer: Its relative viability is 0.553.

Question: What about the relative viability (NCI-H1703; first compound 0.2 µM) of the same molecule?
Answer: Its relative viability is 0.633.

Question: What about the relative viability (NCI-H1703; first compound 0.6325 µM) of the same molecule?
Answer: The relative viability was 0.23.

Question: And the relative viability (NCI-H1703; first compound 2 µM)?
Answer: The relative viability was 0.0951.

Question: What about the relative viability (NCI-H2009; first compound 0.02 µM) of the same molecule?
Answer: Its relative viability is 1.03.

Question: What about the relative viability (NCI-H2009; first compound 0.2 µM) of the same molecule?
Answer: The relative viability was 0.756.

Question: What about the relative viability (NCI-H2009; first compound 0.6325 µM) of the same molecule?
Answer: The relative viability was 0.896.

Question: What about the relative viability (NCI-H2009; first compound 2 µM) of the same molecule?
Answer: The relative viability was 0.691.

Question: What about the relative viability (NCI-H2405; first compound 0.02 µM) of the same molecule?
Answer: The relative viability was 0.854.

Question: What about the relative viability (NCI-H2405; first compound 0.2 µM) of the same molecule?
Answer: Its relative viability is 0.788.

Question: What about the relative viability (NCI-H2405; first compound 0.6325 µM) of the same molecule?
Answer: The relative viability was 0.751.

Question: What about the relative viability (NCI-H2405; first compound 2 µM) of the same molecule?
Answer: The relative viability was 0.501.

Question: What about the relative viability (NCI-H647; first compound 0.02 µM) of the same molecule?
Answer: The relative viability was 1.11.

Question: And the relative viability (NCI-H647; first compound 0.2 µM)?
Answer: Its relative viability is 0.707.

Question: And the relative viability (NCI-H647; first compound 0.6325 µM)?
Answer: Its relative viability is 0.704.

Question: What about the relative viability (NCI-H647; first compound 2 µM) of the same molecule?
Answer: Its relative viability is 0.411.
